Source: PubChem BioAssay (NCI)
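Five compound concentrations were applied to cells in 96-well plates for 48 hours; endpoints were derived by simple linear interpolation of the resulting dose-response curve. TGI is the concentration that stops growth completely.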

Legend:
Test in all cases: NCI tumour cell line growth inhibition, 48 h
786-0 renal = tested on: 786-0 renal
A498 renal = tested on: A498 renal
A549 NSCLC = tested on: A549 NSCLC
ACHN renal = tested on: ACHN renal
BT-549 breast = tested on: BT-549 breast
CAKI-1 renal = tested on: CAKI-1 renal
CCRF-CEM leukemia = tested on: CCRF-CEM leukemia
COLO 205 colon = tested on: COLO 205 colon
DU-145 prostate = tested on: DU-145 prostate
EKVX NSCLC = tested on: EKVX NSCLC
HCC-2998 colon = tested on: HCC-2998 colon
HCT-116 colon = tested on: HCT-116 colon
HCT-15 colon = tested on: HCT-15 colon
HL-60(TB) leukemia = tested on: HL-60(TB) leukemia
HOP-62 NSCLC = tested on: HOP-62 NSCLC
HOP-92 NSCLC = tested on: HOP-92 NSCLC
HS 578T breast = tested on: HS 578T breast
HT29 colon = tested on: HT29 colon
IGROV1 ovarian = tested on: IGROV1 ovarian
K-562 leukemia = tested on: K-562 leukemia
KM12 colon = tested on: KM12 colon
LOX IMVI melanoma = tested on: LOX IMVI melanoma
M14 melanoma = tested on: M14 melanoma
MALME-3M melanoma = tested on: MALME-3M melanoma
MCF7 breast = tested on: MCF7 breast
MDA-MB-231 breast = tested on: MDA-MB-231 breast
MDA-MB-435 = tested on: MDA-MB-435
MDA-N = tested on: MDA-N
MOLT-4 leukemia = tested on: MOLT-4 leukemia
NCI-H226 lung = tested on: NCI-H226 lung
NCI-H23 lung = tested on: NCI-H23 lung
NCI-H460 lung = tested on: NCI-H460 lung
NCI-H522 lung = tested on: NCI-H522 lung
NCI/ADR-RES ovarian = tested on: NCI/ADR-RES ovarian
OVCAR-3 ovarian = tested on: OVCAR-3 ovarian
OVCAR-4 ovarian = tested on: OVCAR-4 ovarian
OVCAR-5 ovarian = tested on: OVCAR-5 ovarian
OVCAR-8 ovarian = tested on: OVCAR-8 ovarian
PC-3 prostate = tested on: PC-3 prostate
RPMI-8226 leukemia = tested on: RPMI-8226 leukemia
RXF 393 renal = tested on: RXF 393 renal
SF-268 CNS = tested on: SF-268 CNS
SF-295 CNS = tested on: SF-295 CNS
SF-539 CNS = tested on: SF-539 CNS
SK-MEL-2 melanoma = tested on: SK-MEL-2 melanoma
SK-MEL-28 melanoma = tested on: SK-MEL-28 melanoma
SK-MEL-5 melanoma = tested on: SK-MEL-5 melanoma
SK-OV-3 ovarian = tested on: SK-OV-3 ovarian
SN12C renal = tested on: SN12C renal
SNB-19 CNS = tested on: SNB-19 CNS
SNB-75 CNS = tested on: SNB-75 CNS
SR leukemia = tested on: SR leukemia
SW-620 colon = tested on: SW-620 colon
T-47D breast = tested on: T-47D breast
TK-10 renal = tested on: TK-10 renal
U251 CNS = tested on: U251 CNS
UACC-257 melanoma = tested on: UACC-257 melanoma
UACC-62 melanoma = tested on: UACC-62 melanoma
UO-31 renal = tested on: UO-31 renal

Measured: TGI

CC1(C)OCC(C2OC3OC(C)(C)OC3C2N)O1 (configuration not stated)
> 100 µM: all assays above

O=C(O)c1ccc(C(=O)Nc2cccc3ccccc23)c(C(=O)O)c1
> 100 µM: all assays above

CCCCCC(=O)Nc1n[nH]nc1C#N
> 100 µM: all assays above
